Measurements from article PMC8251916 (Chemistry (Weinheim an Der Bergstrasse, Germany), 2021).

Legend:
L. major = assay: Leishmaniacidal activity, MTT assay; type: cell-based; conditions: Leishmania major; 72 h incubation, MTT absorbance; read-out: absolute EC50 L. major
Description: (§1) Doxorubicin, suramin and miltefosine were used as control compounds.[ ^6b , ^9 ] After incubation with varied concentrations of the compounds for 72 h, cell viability was measured using either an alamarBlue™ assay (for MRC5, HeLa and T. brucei) or MTT assay (for L. major). Absolute EC50 values and selectivity indexes were then calculated from dose‐response curves (Table 2 and S14).
Invitrogen). L. major promastigotes (MHOM/IL/80/Friedlin) were cultured at 28 °C, 5 % CO2 in modified RPMI-1640 medium (Thermo Fisher Scientific, Waltham, MA, USA) with 10% hiFBS. Parasites were split every other day and maintained in their experimental growth phase (below 2 million parasites per mL). […]
The results are expressed as the concentration of compound that reduces cell growth by 50 % versus untreated control cells (EC50) using GraphPad Prism 7 (GraphPad Software) to fit the data to a sigmoidal curve. Data are presented as the average of three independent measurements all conducted in triplicate conditions. […]
The leishmaniacidal activity of the compounds on promastigotes L. major (MHOM/IL/80/Friedlin) was carried out as previously described.[S14] Briefly, 4 × 10^6 / mL promastigotes were incubated for 72 h at 28 °C in 96-well plates (50 µL/well) in the presence of increasing concentration of compounds. Cell proliferation was determined using an MTT-based assay (Sigma-Aldrich). Thus, after the 72 h incubation, 10 µL of MTT (5 mg/ml) were added to each well and parasites were reincubated for 4 hrs at 28 °C. Then, 50 µL of 20 % SDS were added to each well. The plate was then incubated at 37°C for 4-16 hrs and analysed using an Infinite F200 plate reader (TECAN Austria, GmbH). The absorbance was measured […]
at a wavelength of 540 nm and the EC50 was calculated as described above. Data are presented as the average of three independent measurements, all conducted in triplicate conditions. […]

[1] = system: F21T-K+ (human telomeric G-quadruplex, mixed parallel/hybrid); assay: FRET melting assay, human telomeric G4 in potassium buffer; type: binding; conditions: 200 nM DNA, PIPER and 3 not reliable (spectral overlap)
Description: (§2) With the library in hand, we began our investigation into G4 stabilization by conducting a Förster resonance energy transfer (FRET) melting assay to assess DNA stabilization using the procedure outlined by De Cian et. al. ^[13] […] The sequences examined (at 200 nM) were the human telomeric G4 in potassium buffer (F21T‐K^+, mixed parallel/hybrid G4) ^[14] and sodium buffer (F21T‐Na^+, antiparallel G4), ^[15] the c‐Myc promoter G‐quadruplex (FmycT‐K^+, parallel G4), ^[16] a polymorphic G4 found in T. brucei (FEBR1T‐K^+, a mixed G4 topology), ^[6b] and a hairpin duplex DNA sequence (F10T‐K^+). Together, these sequences represent targets for therapeutic intervention to treat parasitic infections, ^[6b] or cancer. ^[1b] The topology of each sequence was confirmed independently via circular dichroism (CD, Figure S1). […]
(§3) FRET melting assays were performed to assess ligand affinity for duplex and G-quadruplex
(§4) DNA. Briefly, oligonucleotides of interest were obtained labelled at the 5’ and 3’ ends with FAM (a fluorescence donor) and TAMRA (a fluorescence quencher), respectively. In the folded state, proximity of the donor and quencher result in no observed fluorescence from FAM, since energy is transferred non-radiatively to TAMRA by FRET. As the temperature is raised and the secondary structure denatures, the fluorophores move further apart and the fluorescence signal increases. From the resulting curve, the characteristic melting temperature (Tmax, also referred to as Tm) is defined as the temperature which corresponds to the maxima of the first derivative of the normalised fluorescence signal. The change in melting temperature (ΔTm) induced by the presence of a small molecule ligand provides an indication of the ligand’s ability to stabilise the DNA structure. FRET experiments were performed according to the […]
(§5) procedure reported by De Cian and co-workers[S3] on a Stratagene MX3005P. The method consisted of holding at 25 °C for 5 min, before heating at 1 °C/min to 96 °C in 1 °C increments, […]

[2] = system: Febr1T-K+ (T. brucei G-quadruplex); assay: FRET melting assay, T. brucei G4; type: binding; conditions: 200 nM DNA, PIPER and 3 not reliable (spectral overlap)
Description: as §2, §3, §4, §5

[3] = system: F10T-K+ (hairpin duplex DNA); assay: FRET melting assay, hairpin duplex DNA; type: binding; conditions: 200 nM DNA, PIPER and 3 not reliable (spectral overlap)
Description: as §2, §3, §4, §5

[4] = system: FmycT-K+ (c-Myc promoter G-quadruplex, parallel); assay: FRET melting assay, c-Myc promoter G4; type: binding; conditions: 200 nM DNA, PIPER and 3 not reliable (spectral overlap)
Description: as §2, §3, §4, §5

[5] = system: F21T-Na+ (human telomeric G-quadruplex, antiparallel); assay: FRET melting assay, human telomeric G4 in sodium buffer; type: binding; conditions: 200 nM DNA, PIPER and 3 not reliable (spectral overlap)
Description: as §2, §3, §4, §5

MRC5 non-tumoral cells = assay: Cytotoxicity, alamarBlue assay, MRC5; type: cell-based, human; conditions: Homo sapiens, MRC5, 72 h, 72 h incubation, alamarBlue fluorescence; read-out: absolute EC50 MRC5
Description: as §1, with “S14). […]” for “S14).”
(§6) Cell culture reagents were purchased from Thermo Fisher Scientific (Waltham, MA, USA) and used as-is. The Dulbecco’s Minimal Essential Medium (DMEM) formulation contained either high glucose (4.5 g/L, catalogue number: 10569) or low glucose (1 g/L, catalogue number:
(§7) 10567). RPMI-1640 was provided without sodium pyruvate and with L-glutamine (catalogue number: 11875). Phosphate Buffered Saline (PBS) contained NaCl (9 g/L), KH2PO4 (144 mg/L) and Na2HPO4-7.H2O (795 mg/L, catalogue number: 10010049). TrypLE Express™ was provided with EDTA (458 mg/L) and without Phenol Red (catalogue number: 12604021).
(§8) MRC-5 cells (human lung fibroblasts) were grown in monolayer (37 °C, 5 % CO2 and 100 % humidity) in DMEM medium (1 g/L glucose), supplemented with 10% heat-inactivated Fetal Bovine Serum (hiFBS), 2 mM L-glutamine, 100 U / mL penicillin and […]
(§9) streptomycin. […]
(§10) Cells were cultured according to ATCC recommendations and were used for the experiments while in the exponential growth phase. […]
(§11) Cytotoxicity was measured through the alamarBlue® assay (Thermo Fisher Scientific).[S6,S13] Briefly, 5×10^3 MRC-5 or HeLa cells were seeded in 96-wells plates (100 µL / well) in the presence of increasing concentrations of compound. After 72 hrs of incubation at 37 °C, 20 µL of alamarBlue® solution (110 ng / ml) was added to each well and cells were reincubated for 4 hrs at 37 °C. Then, 50 µL of 3 % SDS were added to each well. The plate was incubated at 37 °C for an extra hour and then analysed by fluorescence with an Infinite F200 plate reader (TECAN Austria, GmbH). The excitation wavelength was fixed at 550 nm and the emission wavelength at 590 nm. The results are expressed as the concentration of compound that reduces

T. brucei = assay: Trypanocidal activity, alamarBlue assay; type: cell-based; conditions: Trypanosoma brucei; 72 h incubation, alamarBlue fluorescence; read-out: absolute EC50 T. brucei
Description: as §1, with “S14). […]” for “S14).”
as §6, §7, §8, §9, §10
hiFBS. Parasites were split every other day and maintained in their experimental growth phase (below 2 million parasites per mL).
as §11

[6] = system: HeLa cervical carcinoma cells; assay: Cytotoxicity, alamarBlue assay, HeLa; type: cell-based, human; conditions: Homo sapiens, HeLa; 72 h incubation, alamarBlue fluorescence; read-out: absolute EC50 HeLa
Description: as §1, with “S14). […]” for “S14).”
as §6, §7
MRC-5 cells (human lung fibroblasts) were grown in monolayer (37 °C, 5 % CO2 and 100 % humidity) in DMEM medium (1 g/L glucose), supplemented with 10% heat-inactivated Fetal Bovine Serum (hiFBS), 2 mM L-glutamine, 100 U / mL penicillin and […] streptomycin. HeLa (Human cervical carcinoma cell line) cells were maintained at 37 °C and 5 % CO2 in high glucose DMEM (4.5 g / L) supplemented with 10% hiFBS, 100 U / ml penicillin, […] streptomycin, 2 mM L-glutamine and non-essential aminoacids (1X).
as §10, §11

Row | Structure (SMILES) | EC50 (L. major) | ΔTm F21T-K+ ([1]; 1 µM ligand) | ΔTm Febr1T-K+ ([2]; 1 µM ligand) | ΔTm F10T-K+ ([3]; 1 µM ligand) | ΔTm FmycT-K+ ([4]; 1 µM ligand) | ΔTm F21T-Na+ ([5]; 1 µM ligand) | EC50 (MRC5 non-tumoral cells) | ΔTm F21T-K+ ([1]; 10 µM ligand) | EC50 (T. brucei) | EC50 [6] | ΔTm Febr1T-K+ ([2]; 10 µM ligand) | ΔTm F10T-K+ ([3]; 10 µM ligand) | ΔTm FmycT-K+ ([4]; 10 µM ligand) | ΔTm F21T-Na+ ([5]; 10 µM ligand)
1 | CCCCCCCCCCCCCCCCOP(=O)([O-])OCC[N+](C)(C)C [Miltefosine, reference compound] | 5.8 ± 0.01 µM | – | – | – | – | – | – | – | – | – | – | – | – | –
2 | C[n+]1ccc(-c2c3nc(c(-c4cc[n+](C)cc4)c4ccc([nH]4)c(-c4cc[n+](C)cc4)c4ccc([nH]4)c(-c4cc[n+](C)cc4)c4nc2C=C4)C=C3)cc1 [TMPyP4, reference compound] | – | 33 ± 1 °C | 32 ± 2 °C | 9 ± 1 °C | 34 ± 1 °C | 31 ± 2 °C | – | – | – | – | – | – | – | –
3 | CN1CCN(CCCn2c(=O)c3cc4c(=O)n(CCCN5CCN(C)CC5)c(=O)c4cc3c2=O)CC1 [Compound 8] | > 100 µM | – | – | – | – | – | > 100 µM | 1 ± 1 °C | 52 ± 7 µM | > 100 µM | -2 ± 1 °C | 0 ± 1 °C | -2 ± 1 °C | 1 ± 1 °C
4 | CN1CCN(CCCN2C(=O)c3ccc(C(c4ccc5c(c4)C(=O)N(CCCN4CCN(C)CC4)C5=O)(C(F)(F)F)C(F)(F)F)cc3C2=O)CC1 [Compound 6] | > 100 µM | – | – | – | – | – | > 100 µM | -2 ± 1 °C | 36 ± 2 µM | > 100 µM | 2 ± 1 °C | 0 ± 1 °C | -4 ± 1 °C | -8 ± 1 °C
5 | CN1CCN(CCCN2C(=O)c3ccc(C(=O)c4ccc5c(c4)C(=O)N(CCCN4CCN(C)CC4)C5=O)cc3C2=O)CC1 [Compound 7] | > 100 µM | – | – | – | – | – | > 100 µM | -3 ± 1 °C | 70 ± 13 µM | > 100 µM | 1 ± 1 °C | 0 ± 1 °C | -3 ± 1 °C | -3 ± 2 °C
